Measurements taken from patent publication US20100029542A1, “PROTEIN STERILISATION BY RADIATION AND ADDITION OF A STABILISING COMPOSITION” (priority 2006, published 2010).
Where two headings read alike, the source gives them in different places. Where a SMILES comes first, the peptide text is derived from it.

Columns and labels:
catalase = target: T1, catalase (Bos taurus, UniProt P00432); experiment: Activity recovery of catalase in dry formulations following gamma irradiation; type: physicochemical, bovine; settings: for Enzyme activity remaining after gamma-irradiation: catalase 100 μg mL^−1 prior to drying, dry, 25-40 kGy
T1 construct: Catalase (from bovine liver, Sigma C9322, 2380 U /mg solid); purchased Sigma C9322; host or cells: bovine liver
T1 sequence (P00432 2-527 limits assumed): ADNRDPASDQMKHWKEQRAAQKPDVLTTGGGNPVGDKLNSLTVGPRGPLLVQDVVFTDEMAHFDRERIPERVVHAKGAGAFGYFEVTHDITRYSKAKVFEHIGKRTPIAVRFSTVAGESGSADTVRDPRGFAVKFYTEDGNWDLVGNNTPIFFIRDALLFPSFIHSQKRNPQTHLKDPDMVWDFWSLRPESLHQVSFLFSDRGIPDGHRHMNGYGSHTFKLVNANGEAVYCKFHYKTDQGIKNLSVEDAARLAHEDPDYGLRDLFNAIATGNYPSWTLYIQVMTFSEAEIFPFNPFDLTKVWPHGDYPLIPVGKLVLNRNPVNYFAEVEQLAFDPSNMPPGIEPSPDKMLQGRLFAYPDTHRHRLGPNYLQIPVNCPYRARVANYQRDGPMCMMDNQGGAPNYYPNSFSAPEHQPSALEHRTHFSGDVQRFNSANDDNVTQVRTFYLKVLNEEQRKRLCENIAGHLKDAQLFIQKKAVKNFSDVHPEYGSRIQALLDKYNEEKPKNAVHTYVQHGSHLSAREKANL
Method: (§1) In each example, an aqueous solution of a protein was prepared with selected additives in an Eppendorf tube or in a glass vial. Water was removed from the formulation by drying under a stream of nitrogen at 30° C. and subsequent incubation at atmospheric pressure in the presence of a dessicant. The Eppendorf tubes or the glass vials were sealed and delivered to an industrial sterilisation service for gamma irradiation, with a dose range typical for sterile medical products. The gamma-irradiated samples were reconstituted on their return and analysed for protein activity or structural integrity. The results were compared with those achieved using control (i.e. non-irradiated) samples.
(§2) The dry samples (approx. 20 μg in an Eppendorf tube) were gamma-irradiated by an industry-standard commercial sterilising service provided by Isotron PLC (Swindon, Wilts, UK), using a Cobalt 60 gamma source at ambient temperature. The radiation dose was in the range of 25-40 kGy.
(§3) The original solutions (i.e. solutions prior to drying) contained 100 μg mL^−1 of catalase and typically the total of 100 mM of protective compounds (i.e. 100 mM in case of a single compound, 50 mM+50 mM in case of two compounds, 33.3 mM+33.3 mM+33.3 mM in the case of three compounds etc.). The solutions were dried and gamma irradiated. Following the gamma irradiation, the samples, both pre- and post-gamma irradiated, were assayed for […] activity. This was performed according to the following procedure:
Water was added to the sample to achieve 100 μg mL^−1 of catalase. 100 μL of the solution was added to a mixture of 18 mL of PBS and 2 mL of hydrogen peroxide (30 mM in water) in a 125 mL polypropylene pot and mixed. The resulting mixture was incubated at room temperature precisely for 30 min. In the meantime, the following reagents were mixed in a plastic cuvette for spectrophotometric measurements: • 2.73 mL of citrate/phosphate buffer (0.1 M, pH 5.0) • 100 μL of tetramethylbenzidine (TMB) (3 mg/mL, dissolved in dimethyl sulphoxide (DMSO)) • 100 μL of lactoperoxidase
Following the 30 min incubation period, 70 μL of the catalase containing mixture was added to the cuvette and absorbance was read in approximately 30 s. The results were expressed as percentage recovery, by reference to the absorbance measured in the fresh samples (i.e. prior to incubation at increased temperature).

[1] = cited from earlier work; for Rate constant k: Table 1, singlet oxygen scavengers, measured in specified solvents
glucose oxidase = target: T2, glucose oxidase (Aspergillus niger, UniProt P13006); experiment: Activity recovery of glucose oxidase in dry formulations following gamma irradiation; type: physicochemical; settings: glucose oxidase 350 μg mL^−1 prior to drying, dry, 25-40 kGy
T2 construct: purchased Biocatalysts G575P
T2 sequence (P13006 17-605): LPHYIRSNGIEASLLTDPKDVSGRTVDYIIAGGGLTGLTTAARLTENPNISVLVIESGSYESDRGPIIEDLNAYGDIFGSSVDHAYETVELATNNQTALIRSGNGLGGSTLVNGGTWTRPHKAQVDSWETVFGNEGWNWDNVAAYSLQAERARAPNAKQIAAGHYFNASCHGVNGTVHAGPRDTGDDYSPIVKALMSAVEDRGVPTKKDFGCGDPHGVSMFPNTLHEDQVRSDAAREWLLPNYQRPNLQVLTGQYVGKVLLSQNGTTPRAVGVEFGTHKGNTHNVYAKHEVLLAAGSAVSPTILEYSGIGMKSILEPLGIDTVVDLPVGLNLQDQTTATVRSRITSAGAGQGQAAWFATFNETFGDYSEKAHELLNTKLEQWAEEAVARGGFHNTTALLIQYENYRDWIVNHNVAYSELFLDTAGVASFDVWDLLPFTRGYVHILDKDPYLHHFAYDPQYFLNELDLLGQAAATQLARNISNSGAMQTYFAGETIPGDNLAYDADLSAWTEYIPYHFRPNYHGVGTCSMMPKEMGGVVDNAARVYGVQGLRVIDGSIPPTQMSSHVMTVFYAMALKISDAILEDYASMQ
Method: as §1, §2
as §3, with “contained 350” for “contained 100”, “of glucose oxidase” for “of catalase”
Water was added to the sample to achieve 350 μg mL^−1 of glucose oxidase. 50 μL of the solution was added to 50 mL of deionised water. The following solutions were then added: • 10 mL of reagent mix (5 parts of 0.1 M sodium phosphate, pH 6+4 parts 2% w/w starch+1 part of 1 mg/mL lactoperoxidase enzyme); • 5 mL of 100 mM potassium iodide; and • 5 mL of 20% w/w glucose solution.
These were mixed together quickly. Time=0 was counted from the addition of the glucose. After 5 min, 1 ml of 5 M aq. hydrochloric acid was added to stop the reaction. The absorbance was then read at 630 nm using a Unicam UV-visible spectrophotometer (Type: Helios gamma). If the colour intensity was too great to allow an accurate reading, the sample was diluted with a defined volume of deionised water to bring the colour back on scale. The results were expressed as percentage recovery, by reference to the absorbance measured in the pre-gamma irradiation samples.

human growth hormone = target: T3, human growth hormone (Homo sapiens, UniProt P01241); experiment: Recovery of structural integrity of human growth hormone in dry formulations following gamma irradiation (HPLC); type: physicochemical; settings: structural integrity by HPLC, human growth hormone 2.5 mg mL^−1 prior to drying, 25-40 kGy
T3 construct: purchased National Institute of Biological Standards and Control; further samples on prescription from a GP surgery
T3 sequence (P01241 27-217): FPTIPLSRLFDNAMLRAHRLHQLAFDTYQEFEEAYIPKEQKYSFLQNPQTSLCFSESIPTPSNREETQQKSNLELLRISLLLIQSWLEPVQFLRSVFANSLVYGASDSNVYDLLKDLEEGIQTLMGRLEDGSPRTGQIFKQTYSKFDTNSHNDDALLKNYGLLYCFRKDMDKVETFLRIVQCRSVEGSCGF
Method: as §1, §2
Mobile phase was prepared by mixing 71 parts (by volume) of a solution of TRIS (0.05 M, in water adjusted with hydrochloric acid to a pH of 7.5) and 29 parts (by volume) of n-propylalcohol. The mobile phase was filtered prior to its use. The liquid chromatograph (Agilent 1100 series) was equipped with a 214 nm detector and a 4.6×250 mm column (Phenomenex 00G-4167-E0) packed with butylsilyl silica gel with a granulometry of 5 μm and a porosity of 30 nm, maintained at 45° C. The flow rate was maintained at 0.5 mL min^−1. 15 μL of aqueous samples of human growth hormone (typically 1-2.5 mg mL^−1) were injected. Results were expressed as % of peak area corresponding to the gamma irradiated sample with respect to that measured in non-irradiated sample.

Sandostatin = experiment: Recovery of structural integrity of Sandostatin in dry formulations following gamma irradiation (HPLC); type: physicochemical; settings: structural integrity by HPLC, excipient:Sandostatin weight ratio 10:1, 25-40 kGy
Method: as §1, §2
Mobile phase A was 0.1 M triethylamine adjusted to pH 2.3 with phosphoric acid. Mobile phase B was acetonitrile. The mobile phases were filtered prior to their use. The following linear gradient was used: time 0: 90% A+10% B; time 35 min: 60% A+40% B. The liquid chromatograph (Agilent 1100 series) was equipped with a 214 nm detector, guard column and a 4.6×150 mm C18 column with a granulometry of 5 μm and a porosity of 30 nm, maintained at ambient temperature. The flow rate was maintained at 1.0 mL min^−1. Injection volume was 50 μL (typically sandostatin at 200 μg mL^−1). Results were expressed as % of main peak area (i.e. area of the peak corresponding to intact sandostatin measured in the gamma irradiated sample with respect to that measured in non-irradiated sample of identical composition). A chromatogram of a standard solution of sandostatin was recorded after every 12 samples to ensure that no drift in the position of the major peak had occurred. The control measurements ruled out any ambiguity in interpreting the chromatograms.

[2] = Table 6, singlet oxygen scavengers, ambient temperature
[3] = Table 5, singlet oxygen scavengers, ambient temperature
[4] = Table 10, superoxide scavengers
[5] = Table 11, superoxide scavengers
[6] = Table 12, superoxide scavengers
[7] = Table 4, prior-art antioxidants, ambient temperature
[8] = Table 3, prior-art antioxidants, ambient temperature, vs non-irradiated
[9] = Table 7, singlet oxygen scavengers
[10] = Table 8, singlet oxygen scavengers

For `C[C@H](N)C(=O)O` [Alanine], the “Enzyme activity remaining after gamma-irradiation” value (shortened to “Enzyme activity remaining”) (catalase; [2]) is listed as 8.8%, the Rate constant k [1] is listed as “k = 3.0 × 10^7 L mol^−1 s^−1” and the “Rate of reaction with singlet oxygen” value ([1]; Table 5) is listed as 3e+07 M⁻¹ s⁻¹. The “Rate of reaction with singlet oxygen” value ([1]; Table 6) was 3e+07 M⁻¹ s⁻¹ and the “Enzyme activity remaining” value (glucose oxidase; [3]) was 15.3%.

In the case of `[N-]=[N+]=[N-]` [Azide anion], the Rate constant k [1] is listed as “k = 4.5 × 10^8 L mol^−1 s^−1”.

For `O=C(O)CC(O)(CC(=O)O)C(=O)O` [Citrate], the “Enzyme activity remaining” value (catalase; [4]) was 39.5%, the “Structural integrity remaining after gamma-irradiation (HPLC)” value (shortened to “Structural integrity remaining”) (human growth hormone; [5]) was 45.6% and the “Enzyme activity remaining” value (Sandostatin; [6]) was 91.8%. The “Enzyme activity remaining” value (glucose oxidase; Table 9, superoxide scavengers) was 32.0%.

In the case of `[Cu+2]` [Copper(II) ion], the Rate constant k [1] is listed as “k = 6.4 × 10^7 L mol^−1 s^−1”.

For `N[C@@H](CS)C(=O)O` [Cysteine anion], the Rate constant k [1] is listed as “k = 1.5 × 10^8 L mol^−1 s^−1”.

For `CC12CCC(CC1)C(C)(C)O2` [Eucaliptol], the “Compatibility of the compound with catalase” value (catalase; as excipient in the formulation) was “inhibit catalase” and the “Enzyme activity remaining” value (glucose oxidase; Table 13, ozone scavengers) was 17.5%.

In the case of `NCC(=O)NCC(=O)O` [Glycylglycine] (H-Gly-Gly-OH), the “Structural integrity remaining” value (human growth hormone; [7]) is reported as 47.2% and the “Enzyme activity remaining” value (glucose oxidase; [8]) is reported as 20.1%.

In the case of `N[C@@H](Cc1c[nH]cn1)C(=O)O` [Histidine], the “Enzyme activity remaining” value (catalase; [2]) is given as 18.3%, the Rate constant k [1] is given as “k = 4.6 × 10^7 L mol^−1 s^−1” and the “Rate of reaction with singlet oxygen” value ([1]; Table 5) is given as 4.6e+07 M⁻¹ s⁻¹. The “Rate of reaction with singlet oxygen” value ([1]; Table 6) was 4.6e+07 M⁻¹ s⁻¹, the “Rate of reaction with singlet oxygen” value ([1]; Table 7) was 4.6e+07 M⁻¹ s⁻¹ and the “Rate of reaction with singlet oxygen” value ([1]; Table 8) was 4.6e+07 M⁻¹ s⁻¹. The “Structural integrity remaining” value (human growth hormone; [9]) was 55.5%, the “Enzyme activity remaining” value (Sandostatin; [10]) was 85.0% and the “Enzyme activity remaining” value (glucose oxidase; [3]) was 57.9%.

With `O=C(O)CC(O)C(=O)O` (stereo not drawn) [Malate] the “Enzyme activity remaining” value (catalase; [4]) was 40.9%, the “Structural integrity remaining” value (human growth hormone; [5]) was 52.1% and the “Enzyme activity remaining” value (Sandostatin; [6]) was 87.7%. The “Enzyme activity remaining” value (glucose oxidase; Table 9, superoxide scavengers) was 40.7%.

In the case of `OC[C@@H](O)[C@@H](O)[C@H](O)[C@H](O)CO` [Mannitol], the “Enzyme activity remaining” value (catalase; [4]) is reported as 36.3%, the “Structural integrity remaining” value (human growth hormone; [5]) is reported as 28.3% and the “Enzyme activity remaining” value (Sandostatin; [6]) is reported as 72.6%. For the same molecule, the “Enzyme activity remaining” value (glucose oxidase; Table 9, superoxide scavengers) was 17.2%.

For `NC(=O)C1=CN([C@@H]2O[C@H](COP(=O)(O)OP(=O)(O)OC[C@H]3O[C@@H](n4cnc5c(N)ncnc54)[C@H](O)[C@@H]3O)[C@@H](O)[C@H]2O)C=CC1` [NADH], the Rate constant k [1] is listed as “k = 2 × 10^7 L mol^−1 s^−1”.

In the case of `[Ni+2]` [Nickel (II) ion], the Rate constant k [1] is given as “k = 3.3 × 10^7 L mol^−1 s^−1”.

In the case of `CC(=O)CCCCn1c(=O)c2c(ncn2C)n(C)c1=O` [Pentoxyfylline, reference compound], the “Enzyme activity remaining” value (catalase; Table 14, ozone scavenger) is reported as 77.0%, the “Structural integrity remaining” value (human growth hormone; Table 15, ozone scavenger) is reported as 46.0% and the “Enzyme activity remaining” value (glucose oxidase; Table 13, ozone scavengers) is reported as 36.2%.

In the case of `Cc1ncc(C[n+]2csc(CCO)c2C)c(N)n1` [Thiamine], the “Enzyme activity remaining” value (catalase; [2]) is listed as 26.1%, the Rate constant k [1] is listed as “k = 6 × 10^7 L mol^−1 s^−1” and the “Rate of reaction with singlet oxygen” value ([1]; Table 5) is listed as 6e+07 M⁻¹ s⁻¹. The “Rate of reaction with singlet oxygen” value ([1]; Table 6) was 6e+07 M⁻¹ s⁻¹, the “Rate of reaction with singlet oxygen” value ([1]; Table 7) was 6e+07 M⁻¹ s⁻¹ and the “Rate of reaction with singlet oxygen” value ([1]; Table 8) was 6e+07 M⁻¹ s⁻¹. For the same molecule, the “Structural integrity remaining” value (human growth hormone; [9]) was 48.8%, the “Enzyme activity remaining” value (Sandostatin; [10]) was 87.7% and the “Enzyme activity remaining” value (glucose oxidase; [3]) was 43.1%.

In the case of `O=S(=O)(O)c1cc(O)c(O)c(S(=O)(=O)O)c1` [Tiron], the “Enzyme activity remaining” value (catalase; [4]) is reported as 17.9%, the “Structural integrity remaining” value (human growth hormone; [5]) is reported as 55.7% and the “Enzyme activity remaining” value (Sandostatin; [6]) is reported as 89.7%. For the same molecule, the “Enzyme activity remaining” value (glucose oxidase; Table 9, superoxide scavengers) was 27.5%.

With `Cc1c(C)c2c(c(C)c1O)CCC(C)(C(=O)O)O2` (stereo not drawn) [Trolox] the “Structural integrity remaining” value (human growth hormone; [7]) was 49.6% and the “Enzyme activity remaining” value (glucose oxidase; [8]) was 45.9%.

With `Oc1nc(O)c2nc(O)[nH]c2n1` [Urate] the “Structural integrity remaining” value (human growth hormone; [7]) was 61.5% and the “Enzyme activity remaining” value (glucose oxidase; [8]) was 32.6%.

For Silymarine, the “Structural integrity remaining” value (human growth hormone; [7]) was 63.0% and the “Enzyme activity remaining” value (glucose oxidase; [8]) was 46.3%.
